How the values were obtained:
[1] = tested on: A549 cells induced by TGF-β1 (lung fibrosis model); experiment: Hydroxyproline content in TGF-β1-induced A549 pulmonary fibrosis cell model; assay type: cell-based, human; details: for Hydroxyproline Content Inhibition Rate in the Pulmonary Fibrosis Model: 48 hours
Procedure: Human non-small cell lung cancer cells A549 were cultured in DMEM medium containing 10% (volume fraction) fetal bovine serum, cultured in a carbon dioxide incubator with a volume fraction of 5% at 37° C., and changed once every other day, depending on cell density. A549 cells in logarithmic growth phase were digested with 0.25% trypsin to prepare a cell suspension, adjusted to a cell concentration of 1×10^9 cells/L, and seeded at a density of 4×10^5 cells/cm2 in a cell culture dish of 90 cm^2. The cells were randomly divided into two groups: (1) control group: cultured in DMEM containing 10% (volume fraction) fetal bovine serum; (2) model group: containing 10% (volume fraction) fetal bovine serum, transforming growth factor (TGF-β1, final concentration 5 μg/L) was cultured in DMEM. The cells were cultured at 37° C. in a volumetric 5% carbon dioxide incubator, and changed every other day, depending on the cell density. Cell morphology was observed daily using an inverted microscope to determine when the model was established. When A549 cells are changed from the cobblestone shape of the original epithelial cells to the long spindle shape of the interstitial cells, the modeling is successfully established.
After 48 hours of addition of the polypeptides, the cells of the control group, the model group, and the administration group were collected for subsequent measurement of molecular markers related to pulmonary fibrosis.
Hydroxyproline accounts for 13.4% of collagen, so the content of hydroxyproline can reflect the accumulation of collagen during pulmonary fibrosis, which in turn reflects the degree of pulmonary fibrosis.
Prepare citric acid buffer: 120 g of sodium citrate, 12 mL of glacial acetic acid, 46 g of citric acid, 34 g of sodium hydroxide, dissolved in distilled water, adjust the pH to 6.0, and then dilute to 1000 mL.
Prepare 0.05 mol/L chloramine T solution: weigh 7.05 g of chloramine T, dissolve in 100 mL of distilled water, then add 150 mL of ethylene glycol, and add 250 mL of citric acid buffer to mix well.
Prepare p-dimethylaminobenzaldehyde: Reagent A: Take 20 mL of absolute ethanol, slowly add 2.74 mL of concentrated sulfuric acid; Reagent B: Take 12.0 g of p-dimethylaminobenzaldehyde, slowly add 40 mL of absolute ethanol. Heat in a water bath to completely dissolve and cool to room temperature, then slowly add the A solution to B and mix well.
Prepare a […] perchloric acid solution: take 27 mL of perchloric acid and dilute to 100 mL with distilled water.
The specific steps are as follows: collect the cells in a 1 mL water solution and lyse the cells using a homogenizer; adjust the pH to neutral, dilute to 3 mL, add activated carbon to centrifuge; take 1 mL supernatant, add 1 mL solution 1 (1 mL citrate buffer and 1 mL 0.05 mol/L chloramine T solution), stand for 10 minutes, add 1 mL of perchloric acid, stand for 5 minutes, add 1 mL of p-dimethylaminobenzaldehyde reagent, keep in 60° C. water bath for 15 minutes; centrifuge at 3500 rpm/min for 10 minutes, take the supernatant to measure the absorbance value at a wavelength of 550 nm.
The test was repeated 3 times independently, and the inhibition rate was calculated as follows: inhibition rate (%)=(1−experimental group absorbance/model group absorbance)×100%.

pneumonia fungi = experiment: Mouse pneumonia model, fungal; assay type: in vivo, BALB/C mice; set-up: concentration or dose not given beside the values; details: mean ± SD
Procedure: (§1) The mouse pneumonia model was successfully established by the nose-drop method. To build the mouse pneumonia model, BALB/C mice with a body mass of 16-22 g were selected and anesthetized pneumonia chain was prepared after anesthesia with ether on day 0, day 1, and day 2. Staphylococcal fluid, adenovirus concentrate, Mycoplasma pneumoniae, Chlamydia pneumoniae, protozoa, and pneumonia fungi were slowly dripped into the nasal cavity of the mice, so that they enter the tracheobronchial. During the operation process, care was exercised to prevent bacterial fluid from flowing into the esophagus, which leads to inactivation the bacterial fluid. After successful model establishment, the polypeptides of the present invention were administered, and the results were shown in Table 5. […] The results were expressed in average value±standard deviation.

protozoa = experiment: Mouse pneumonia model, protozoal; assay type: in vivo, BALB/C mice; set-up: concentration or dose not given beside the values; details: mean ± SD
Procedure: as §1

Large cell lung cancer = experiment: MTT assay, lung cancer tumor cells; assay type: cell-based, human; set-up: concentration or dose not given beside the values; details: 48 h, mean ± SD
Procedure: (§2) The inhibition of the growth of human lung cancer tumor cells by the polypeptide of the present invention was examined by MTT assay. The lung cancer tumor cells were cultured in a 37° C., 5% (volume fraction) CO2 incubator to a density of 90% or more, and collected by trypsinization. The cells were resuspended in the culture medium and counted under a microscope to adjust the cell concentration to 2.0×10^4 cells/mL, the cell suspension was inoculated into a 96-well plate at 100 μL per well, and cultured overnight at 37° C. in a 5% (volume fraction) CO2 incubator. After the cells were completely adhered, the polypeptide of the present invention was added as a drug-administered group, and a culture solution containing no drug was used as a blank control group, and the culture solution was diluted to each predetermined concentration. Each dilution was separately added to a 96-well plate at 100 μL per well and incubated for 48 h at 37° C. in a 5% (volume fraction) CO2 incubator. 20 μL of 5 mg/mL MTT was added to each well of a 96-well plate, and incubation was continued for 4 hours. The medium was aspirated, and the cells were dissolved in 100 μL of DMSO per well. The absorbance was measured by a microplate reader at a detection wavelength of 570 nm and a reference wavelength of 630 nm, and the growth inhibition rate was calculated as follows: tumor growth inhibition rate (%)=(1−administered group absorbance value/unadministered group absorbance value)×100%, and the experiment was repeated 3 times independently. The results obtained by the test were expressed as mean±standard deviation. The results in Table 6 indicate that the polypeptides of the present invention have a good inhibitory effect on proliferation of a variety of human lung cancer tumors (FIG. 5).

Adenosquamous carcinoma = experiment: MTT assay, lung cancer tumor cells; assay type: cell-based, human; set-up: concentration or dose not given beside the values; details: 48 h, mean ± SD
Procedure: as §2

[2] = tested on: Non-small cell lung cancer; experiment: MTT assay, lung cancer tumor cells; assay type: cell-based, human; set-up: concentration or dose not given beside the values; details: 48 h, mean ± SD
Procedure: as §2

Squamous cell carcinoma = experiment: MTT assay, lung cancer tumor cells; assay type: cell-based, human; set-up: concentration or dose not given beside the values; details: 48 h, mean ± SD
Procedure: as §2

Adenocarcinoma = experiment: MTT assay, lung cancer tumor cells; assay type: cell-based, human; set-up: concentration or dose not given beside the values; details: 48 h, mean ± SD
Procedure: as §2

Small Cell Lung Cancer = experiment: MTT assay, lung cancer tumor cells; assay type: cell-based, human; set-up: concentration or dose not given beside the values; details: 48 h, mean ± SD
Procedure: as §2

## Arg-Gly-Asp-Gly-Gly-Gly-Gly-Pro-(D-Pyr)-(D-Cys)-Bip-Arg-Gly-Glu-Gly-Gly-Gly-Gly-Ile-Val-Arg-Arg-Ala-Asp-Arg-Ala-Ala-Val-Pro [Polypeptide III]
[1]
  effect on content of hydroxyproline in lung fibrosis model cells (FIG. 1-3), in words: can inhibit the content of hydroxyproline in lung fibrosis model cells
[1]; 4 uM
  Hydroxyproline Content Inhibition Rate in the Pulmonary Fibrosis Model: 30.66%
[1]; 8 uM
  Hydroxyproline Content Inhibition Rate in the Pulmonary Fibrosis Model: 56.21%
Pneumonia fungi
  Inhibitory Effects on Various Pulmonary Infections: 62.35 ± 17.56%
protozoa
  Inhibitory Effects on Various Pulmonary Infections: 65.68 ± 18.50%
Large cell lung cancer
  tumor growth inhibition rate, MTT Assay: 93.53 ± 17.04%
Adenosquamous carcinoma
  tumor growth inhibition rate, MTT Assay: 63.67 ± 11.60%
[2]
  tumor growth inhibition rate, MTT Assay: 91.58 ± 17.95%
Squamous cell carcinoma
  tumor growth inhibition rate, MTT Assay: 70.61 ± 12.86%
Adenocarcinoma
  tumor growth inhibition rate, MTT Assay: 93.25 ± 16.99%
Small Cell Lung Cancer
  tumor growth inhibition rate, MTT Assay: 74.83 ± 13.63%

## Ile-Val-Arg-Arg-Ala-Asp-Arg-Ala-Ala-Val-Pro-Gly-Gly-Gly-Gly-Arg-Gly-Asp-Gly-Gly-Gly-Gly-Pro-(D-Pyr)-(D-Cys)-Bip-Arg-Gly-Glu [Polypeptide V]
[1]
  effect on content of hydroxyproline in lung fibrosis model cells (FIG. 1-3), in words: can inhibit the content of hydroxyproline in lung fibrosis model cells
[1]; 4 uM
  Hydroxyproline Content Inhibition Rate in the Pulmonary Fibrosis Model: 34.47%
[1]; 8 uM
  Hydroxyproline Content Inhibition Rate in the Pulmonary Fibrosis Model: 49.25%
Pneumonia fungi
  Inhibitory Effects on Various Pulmonary Infections: 50.50 ± 16.77%
protozoa
  Inhibitory Effects on Various Pulmonary Infections: 53.19 ± 20.63%
Large cell lung cancer
  tumor growth inhibition rate, MTT Assay: 75.74 ± 16.27%
Adenosquamous carcinoma
  tumor growth inhibition rate, MTT Assay: 51.56 ± 13.97%
[2]
  tumor growth inhibition rate, MTT Assay: 79.78 ± 20.01%
Squamous cell carcinoma
  tumor growth inhibition rate, MTT Assay: 57.18 ± 10.83%
Adenocarcinoma
  tumor growth inhibition rate, MTT Assay: 75.52 ± 15.25%
Small Cell Lung Cancer
  tumor growth inhibition rate, MTT Assay: 60.60 ± 14.68%

## Pro-(D-Pyr)-(D-Cys)-Bip-Arg-Gly-Glu-Gly-Gly-Gly-Gly-Arg-Gly-Asp-Gly-Gly-Gly-Gly-Ile-Val-Arg-Arg-Ala-Asp-Arg-Ala-Ala-Val-Pro [Polypeptide VI]
[1]
  effect on content of hydroxyproline in lung fibrosis model cells (FIG. 1-3), in words: can inhibit the content of hydroxyproline in lung fibrosis model cells
[1]; 4 uM
  Hydroxyproline Content Inhibition Rate in the Pulmonary Fibrosis Model: 29.55%
[1]; 8 uM
  Hydroxyproline Content Inhibition Rate in the Pulmonary Fibrosis Model: 54.17%
Pneumonia fungi
  Inhibitory Effects on Various Pulmonary Infections: 52.69 ± 14.80%
protozoa
  Inhibitory Effects on Various Pulmonary Infections: 55.50 ± 18.21%
Large cell lung cancer
  tumor growth inhibition rate, MTT Assay: 79.04 ± 14.36%
Adenosquamous carcinoma
  tumor growth inhibition rate, MTT Assay: 53.80 ± 12.33%
[2]
  tumor growth inhibition rate, MTT Assay: 83.25 ± 17.67%
Squamous cell carcinoma
  tumor growth inhibition rate, MTT Assay: 59.67 ± 9.56%
Adenocarcinoma
  tumor growth inhibition rate, MTT Assay: 78.80 ± 13.47%
Small Cell Lung Cancer
  tumor growth inhibition rate, MTT Assay: 63.23 ± 12.96%

## Arg-Gly-Asp-Gly-Gly-Gly-Gly-Ile-Val-Arg-Arg-Ala-Asp-Arg-Ala-Ala-Val-Pro-Gly-Gly-Gly-Gly-Pro-(D-Pyr)-(D-Cys)-Bip-Arg-Gly-Glu [Polypeptide IV]
[1]
  effect on content of hydroxyproline in lung fibrosis model cells (FIG. 1-3), in words: can inhibit the content of hydroxyproline in lung fibrosis model cells
[1]; 4 uM
  Hydroxyproline Content Inhibition Rate in the Pulmonary Fibrosis Model: 33.09%
[1]; 8 uM
  Hydroxyproline Content Inhibition Rate in the Pulmonary Fibrosis Model: 47.28%
Pneumonia fungi
  Inhibitory Effects on Various Pulmonary Infections: 59.28 ± 19.64%
protozoa
  Inhibitory Effects on Various Pulmonary Infections: 62.44 ± 24.16%
Large cell lung cancer
  tumor growth inhibition rate, MTT Assay: 88.92 ± 19.05%
Adenosquamous carcinoma
  tumor growth inhibition rate, MTT Assay: 60.53 ± 16.36%
[2]
  tumor growth inhibition rate, MTT Assay: 93.66 ± 23.44%
Squamous cell carcinoma
  tumor growth inhibition rate, MTT Assay: 67.13 ± 12.69%
Adenocarcinoma
  tumor growth inhibition rate, MTT Assay: 88.65 ± 17.86%
Small Cell Lung Cancer
  tumor growth inhibition rate, MTT Assay: 71.14 ± 17.19%

## Pro-(D-Pyr)-(D-Cys)-Bip-Arg-Gly-Glu-Gly-Gly-Gly-Gly-Ile-Val-Arg-Arg-Ala-Asp-Arg-Ala-Ala-Val-Pro-Gly-Gly-Gly-Gly-Arg-Gly-Asp [Polypeptide I]
[1]
  effect on content of hydroxyproline in lung fibrosis model cells (FIG. 1-3), in words: can inhibit the content of hydroxyproline in lung fibrosis model cells
[1]; 4 uM
  Hydroxyproline Content Inhibition Rate in the Pulmonary Fibrosis Model: 36.50%
[1]; 8 uM
  Hydroxyproline Content Inhibition Rate in the Pulmonary Fibrosis Model: 52.14%
Pneumonia fungi
  Inhibitory Effects on Various Pulmonary Infections: 43.91 ± 15.11%
protozoa
  Inhibitory Effects on Various Pulmonary Infections: 46.25 ± 18.59%
Large cell lung cancer
  tumor growth inhibition rate, MTT Assay: 65.87 ± 14.65%
Adenosquamous carcinoma
  tumor growth inhibition rate, MTT Assay: 44.84 ± 12.58%
[2]
  tumor growth inhibition rate, MTT Assay: 69.38 ± 18.03%
Squamous cell carcinoma
  tumor growth inhibition rate, MTT Assay: 49.73 ± 9.76%
Adenocarcinoma
  tumor growth inhibition rate, MTT Assay: 65.67 ± 13.74%
Small Cell Lung Cancer
  tumor growth inhibition rate, MTT Assay: 52.70 ± 13.22%

## Ile-Val-Arg-Arg-Ala-Asp-Arg-Ala-Ala-Val-Pro-Gly-Gly-Gly-Gly-Pro-(D-Pyr)-(D-Cys)-Bip-Arg-Gly-Glu-Gly-Gly-Gly-Gly-Arg-Gly-Asp [Polypeptide II]
[1]
  effect on content of hydroxyproline in lung fibrosis model cells (FIG. 1-3), in words: can inhibit the content of hydroxyproline in lung fibrosis model cells
[1]; 4 uM
  Hydroxyproline Content Inhibition Rate in the Pulmonary Fibrosis Model: 31.28%
[1]; 8 uM
  Hydroxyproline Content Inhibition Rate in the Pulmonary Fibrosis Model: 57.35%
Pneumonia fungi
  Inhibitory Effects on Various Pulmonary Infections: 57.52 ± 16.39%
protozoa
  Inhibitory Effects on Various Pulmonary Infections: 60.59 ± 17.27%
Large cell lung cancer
  tumor growth inhibition rate, MTT Assay: 86.28 ± 15.90%
Adenosquamous carcinoma
  tumor growth inhibition rate, MTT Assay: 58.73 ± 10.82%
[2]
  tumor growth inhibition rate, MTT Assay: 90.88 ± 16.75%
Squamous cell carcinoma
  tumor growth inhibition rate, MTT Assay: 65.14 ± 12.00%
Adenocarcinoma
  tumor growth inhibition rate, MTT Assay: 86.03 ± 15.85%
Small Cell Lung Cancer
  tumor growth inhibition rate, MTT Assay: 69.03 ± 12.72%

Source: patent US20190031717A1, “MULTI-FUNCTIONAL FUSION POLYPEPTIDE, PREPARATION METHOD THEREOF, AND APPLICATION OF SAME” (NANJING ANJI BIOLOGICAL TECHNOLOGY CO., LTD, priority 2016, published 2019)
